Reference: article PMC10893631, “Receptor-based pharmacophore modeling, molecular docking, synthesis and biological evaluation of novel VEGFR-2, FGFR-1, and BRAF multi-kinase inhibitors” (BMC Chemistry, 2024)

Assays:
MCF-7 cells [1] = assay: Cell cycle analysis by PI flow cytometry; type: cell-based; conditions: MCF-7, at GI50 concentration
Experimental: After the cells were handled as previously described, the distribution of the cells at each stage of the cell cycle was analysed. (For further details see Additional file 1: section II: practical results).
6. Analysis of Cell Cycle Distribution
(§1) MCF-7: Breast Adenocarcinoma was obtained from Nawah Scientific Inc., (Mokatam, Cairo, Egypt). Cells were maintained in DMEM media supplemented with […] of streptomycin, 100 units/mL of penicillin and 10% of heat-inactivated fetal bovine serum in humidified, 5% (v/v) CO2 atmosphere at 37 °C. […]
cells) are collected by trypsinization and washed twice with ice-cold PBS (pH 7.4). Cells are re-suspended in two milliliters of 60% ice-cold ethanol and incubated at 4 °C for 1 h for fixation. Fixed cells are washed twice again with PBS (pH 7.4) and re-suspended in 1 mL of PBS containing 50 µg/mL RNAase A and 10 µg/mL propidium iodide (PI). After 20 min of incubation in dark at 37 C, cells are analyzed for DNA contents using flow cytometry analysis using FL2 (λex/em 535/617 nm) signal detector (ACEA Novocyte™ flowcytometer, ACEA Biosciences Inc., San Diego, CA, USA). For each sample, 12,000 events are acquired.
Cell cycle distribution is calculated using ACEA NovoExpress™ software (ACEA Biosciences Inc., San Diego, CA, USA).
*G0/G1-phase: This phase denotes the non-proliferating cells. Compounds with antiproliferative effect (regardless of their cytotoxicity) are expected to increase this cell […]
*S-phase: This phase denotes proliferating cells and particularly the cells who are undergoing DNA synthesis step of replication. Some compounds might induce S-phase […]
*G2/M-phase: This phase indicates the final phase of cell replication (mitosis). […]

BRAF (WT) = target: T1, BRAF (WT) (Homo sapiens, UniProt P15056); assay: BRAF kinase assay kit (BPS), Kinase-Glo Max luminescence; type: biochemical
T1 construct: purchased BPS Biosciences 78316
T1 sequence (P15056 whole entry): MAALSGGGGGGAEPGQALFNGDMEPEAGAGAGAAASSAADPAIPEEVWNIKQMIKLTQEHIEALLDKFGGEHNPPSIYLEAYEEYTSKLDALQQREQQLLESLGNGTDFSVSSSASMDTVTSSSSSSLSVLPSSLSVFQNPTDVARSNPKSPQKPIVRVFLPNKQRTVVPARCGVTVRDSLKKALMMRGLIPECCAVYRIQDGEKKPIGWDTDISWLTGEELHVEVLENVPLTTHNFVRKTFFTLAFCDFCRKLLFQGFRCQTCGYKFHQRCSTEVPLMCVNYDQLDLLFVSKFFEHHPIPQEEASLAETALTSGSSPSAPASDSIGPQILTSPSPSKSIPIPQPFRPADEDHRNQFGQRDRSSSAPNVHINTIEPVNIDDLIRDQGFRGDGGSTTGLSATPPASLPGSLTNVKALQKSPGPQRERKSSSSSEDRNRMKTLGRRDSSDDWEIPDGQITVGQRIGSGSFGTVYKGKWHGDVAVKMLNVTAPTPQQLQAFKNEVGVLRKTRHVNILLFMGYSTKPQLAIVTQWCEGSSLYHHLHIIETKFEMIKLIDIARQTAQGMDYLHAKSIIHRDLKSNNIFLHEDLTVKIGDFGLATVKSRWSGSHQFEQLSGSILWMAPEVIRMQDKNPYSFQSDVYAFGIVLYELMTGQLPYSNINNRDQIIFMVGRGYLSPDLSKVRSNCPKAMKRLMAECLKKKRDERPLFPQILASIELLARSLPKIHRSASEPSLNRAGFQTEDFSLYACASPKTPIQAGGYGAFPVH
Experimental: (§2) 2. Biochemical kinase assay procedure
The inhibitory activity against different kinases was determined using kinase kits […]
from BPS Biosciences and kinase-Glo Max luminescence kinase assay kit (Promega).
(§3) The assay was carried out according to the protocol provided by the manufacturer. A stock solution of the synthesized derivatives in 100% DMSO was prepared. Subsequently, the compounds were diluted to 10% DMSO.
(§4) A master mixture was prepared according to the number of wells. For VEGFR-2 and FGFR-1 biochemical assays each well include 6 μl of 5x Kinase Buffer 1 + 1 μl of 500 μM ATP + 1 μl of PTK Substrate (Poly-Glu,Tyr 4:1) (10 mg/ml) + 17 μl of distilled water. […]
(§5) The plate was incubated at 30 °C for 45 min. Subsequently, 50 μl of Kinase-Glo Max luminescence reagent was added to each well and the plate was covered with aluminum foil and incubated at room temperature 15 min. Finally, the luminescence was recorded using multimode microplate reader. […]
(§6) The luminescence data were analyzed as follows. The difference between luminescence intensities in the absence of kinase (Lut) and in the presence of kinase (Luc) was defined as 100 % activity (Lut – Luc). Using luminescence signal (Lu) in the presence of the compound, % activity was calculated as: % activity = {(Lut - Lu)/(Lut - Luc)}×100%. […]

MCF-7 cells [2] = assay: Annexin V-FITC apoptosis assay; type: cell-based; conditions: MCF-7, at GI50 concentration
Experimental: As previously reported, the Annexin V-FITC apoptosis detection kit (Abcam Inc., Cambridge, UK) in conjunction with two fluorescent channels flow cytometry was used to identify the populations of apoptosis and necrosis cells. (For further details see Additional file 1: section II: practical results). […]
as §1
Biosciences Inc., San Diego, CA, USA). […]
Apoptosis and necrosis cell populations are determined using Annexin V-FITC apoptosis detection kit (Abcam Inc., Cambridge Science Park, Cambridge, UK) coupled with 2 fluorescent channels flowcytometry. After treatment with test compounds for 48h, cells (105 […]
trypsinization and washed twice with ice-cold PBS (pH 7.4). Then, cells are incubated in dark with 0.5 ml of Annexin V-FITC/PI solution for 30 min in dark at room temperature according to manufacturer protocol. After staining, cells are injected via ACEA

FGFR-1 = target: T2, FGFR-1 (Homo sapiens, UniProt P11362); assay: FGFR-1 kinase assay kit (BPS), Kinase-Glo Max luminescence; type: biochemical
T2 construct: purchased BPS Biosciences 40210
T2 sequence (P11362 22-822): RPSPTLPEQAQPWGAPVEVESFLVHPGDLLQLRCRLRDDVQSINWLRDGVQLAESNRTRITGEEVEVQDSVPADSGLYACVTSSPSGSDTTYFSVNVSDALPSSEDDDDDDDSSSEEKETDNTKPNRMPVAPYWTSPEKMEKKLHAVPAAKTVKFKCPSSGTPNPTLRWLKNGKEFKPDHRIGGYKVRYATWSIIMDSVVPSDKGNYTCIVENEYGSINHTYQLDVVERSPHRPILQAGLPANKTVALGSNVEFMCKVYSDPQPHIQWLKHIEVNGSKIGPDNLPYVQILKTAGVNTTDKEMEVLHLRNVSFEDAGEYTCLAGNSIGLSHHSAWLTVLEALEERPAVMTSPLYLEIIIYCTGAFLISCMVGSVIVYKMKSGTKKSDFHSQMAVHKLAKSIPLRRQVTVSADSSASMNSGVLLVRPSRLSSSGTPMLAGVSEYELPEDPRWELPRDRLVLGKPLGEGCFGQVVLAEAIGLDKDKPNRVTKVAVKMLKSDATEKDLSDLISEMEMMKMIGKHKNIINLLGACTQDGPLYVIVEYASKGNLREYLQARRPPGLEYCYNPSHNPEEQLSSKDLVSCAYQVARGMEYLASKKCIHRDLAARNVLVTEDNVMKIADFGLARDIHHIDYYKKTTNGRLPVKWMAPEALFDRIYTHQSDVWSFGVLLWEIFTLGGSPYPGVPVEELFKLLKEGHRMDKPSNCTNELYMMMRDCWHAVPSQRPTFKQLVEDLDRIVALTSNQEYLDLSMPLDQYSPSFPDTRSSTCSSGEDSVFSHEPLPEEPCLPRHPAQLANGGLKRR
Experimental: as §2
The inhibitory activity against different kinases was determined using kinase kits (VEGFR-2 cat ID: 40325), (FGFR-1 cat ID: 40210), (BRAF (WT) cat. ID: 78316); purchased from BPS Biosciences and kinase-Glo Max luminescence kinase assay kit (Promega).
as §3, §4, §5, §6

Structure (SMILES): COc1cc(C=NNC(=O)c2ccc3[nH]c(-c4ccc(Cl)cc4)nc3c2)cc(OC)c1OC [8u, 2-(4-Chlorophenyl)-N'-(3,4,5-trimethoxybenzylidene)-1H-benzo[d]imidazole-5-carbohydrazide]
- cell cycle arrest (MCF-7 cells [1]): arrests the MCF-7 cell line at the G2/M phase
- %Sub-G1 (MCF-7 cells [1]; 48h, control 2.64): 4.40%
- %G2/M (MCF-7 cells [1]; 48h, control 20.60): 25.57%
- %S (MCF-7 cells [1]; 48h, control 23.10): 29.11%
- %G0/G1 (MCF-7 cells [1]; 48h, control 56.30): 45.32%
- IC50 (BRAF (WT)): 250 ± 30 nM
- apoptosis induction (MCF-7 cells [2]): induces cell apoptosis in MCF-7 cell line
- % necrotic cells (Q2-1) (MCF-7 cells [2]; 48h): 1.09%
- % viable cells (Q2-3) (MCF-7 cells [2]; 48h): 92.92%
- % of cells in early apoptosis (Q2-4) (MCF-7 cells [2]; 48h, control 0.25%): 1.46%
- % of cells in late apoptosis (Q2-2) (MCF-7 cells [2]; 48h, control 2.36%): 4.54%
- IC50 (FGFR-1): 3.74 ± 0.34 µM
